Species: Rattus norvegicus
Assay: Open TG-GATES - Regimen: Single
Type: toxicity, organism-based, Sprague-Dawley
Set-up: regimen Single, gender Male, age 6 weeks
Conditions: in vivo, po, 0 mg/kg, route gavage, dose level Control; for APTT / Bas / Eos / Fbg / Hb / Ht / Lym / MCH / MCHC / MCV / Mono / Neu / PT / Plat / RBC / Ret / WBC: tissue Blood; for KIDNEY_L / KIDNEY_R / KIDNEY_TOTAL: tissue Kidney; for LIVER: tissue Liver; for A/G / ALP / ALT / AST / BUN / CRE / Ca / Cl / DBIL / GLC / IP / K / LDH / Na / PL / RALB / TBIL / TC / TG / TP / gamma-GTP: tissue Plasma

## CN(C)[C@@H]1C(O)=C(C(N)=O)C(=O)[C@@]2(O)C(O)=C3C(=O)c4c(O)cccc4[C@@](C)(O)[C@H]3C[C@@H]12 [TETRACYCLINE]
3 h
  TERMINAL_BW: 187 g
  APTT: 16.4 s
  Bas: 0%
  Eos: 0.6%
  Fbg: 206.2 mg/dL
  Hb: 13.1 g/dL
  Ht: 39.4%
  Lym: 78.4%
  MCH: 22 pg
  MCHC: 33.1%
  MCV: 66.3 fL
  Mono: 8.6%
  Neu: 12.8%
  PT: 12.1 s
  Plat: 105.5 x10_4/uL
  RBC: 595.2 x10_4/ul
  Ret: 11%
  WBC: 95.1 x10_2/uL
  KIDNEY_L: 0.9 g
  KIDNEY_R: 0.9 g
  KIDNEY_TOTAL: 1.8 g
  LIVER: 9 g
  A/G: 2.2
  ALP: 813 IU/L
  ALT: 35.8 IU/L
  AST: 70.8 IU/L
  BUN: 12.6 mg/dL
  CRE: 0.5 mg/dL
  Ca: 11.1 mg/dL
  Cl: 103.6 meq/L
  DBIL: 0.02 mg/dL
  GLC: 187.8 mg/dL
  IP: 10.2 mg/dL
  K: 5.2 meq/L
  LDH: 87.6 IU/L
  Na: 137.6 meq/L
  PL: 143.2 mg/dL
  RALB: 3.7 g/dL
  TBIL: 0.4 mg/dL
  TC: 84 mg/dL
  TG: 42.4 mg/dL
  TP: 5.4 g/dL
  gamma-GTP: 1.4 IU/L
6 h
  TERMINAL_BW: 181.3 g
  APTT: 16.7 s
  Bas: 0%
  Eos: 0.8%
  Fbg: 200.2 mg/dL
  Hb: 13.1 g/dL
  Ht: 39.1%
  Lym: 81.6%
  MCH: 22 pg
  MCHC: 33.4%
  MCV: 65.9 fL
  Mono: 5.2%
  Neu: 13%
  PT: 12.3 s
  Plat: 101.8 x10_4/uL
  RBC: 593.8 x10_4/ul
  Ret: 10.7%
  WBC: 118.1 x10_2/uL
  KIDNEY_L: 0.8 g
  KIDNEY_R: 0.8 g
  KIDNEY_TOTAL: 1.7 g
  LIVER: 8.3 g
  A/G: 2.2
  ALP: 900.4 IU/L
  ALT: 36.2 IU/L
  AST: 68.8 IU/L
  BUN: 9 mg/dL
  CRE: 0.4 mg/dL
  Ca: 10.6 mg/dL
  Cl: 105.2 meq/L
  DBIL: 0.018 mg/dL
  GLC: 180 mg/dL
  IP: 10.5 mg/dL
  K: 5.2 meq/L
  LDH: 77.6 IU/L
  Na: 136.4 meq/L
  PL: 130.4 mg/dL
  RALB: 3.7 g/dL
  TBIL: 0.3 mg/dL
  TC: 76 mg/dL
  TG: 36 mg/dL
  TP: 5.3 g/dL
  gamma-GTP: 1.2 IU/L
9 h
  TERMINAL_BW: 179.4 g
  APTT: 16.9 s
  Bas: 0%
  Eos: 0.6%
  Fbg: 211.6 mg/dL
  Hb: 13.3 g/dL
  Ht: 40.3%
  Lym: 78%
  MCH: 21.7 pg
  MCHC: 33%
  MCV: 65.7 fL
  Mono: 6.2%
  Neu: 15.4%
  PT: 12.8 s
  Plat: 98.9 x10_4/uL
  RBC: 613.2 x10_4/ul
  Ret: 9.1%
  WBC: 72 x10_2/uL
  KIDNEY_L: 0.9 g
  KIDNEY_R: 0.9 g
  KIDNEY_TOTAL: 1.8 g
  LIVER: 7.5 g
  A/G: 2.3
  ALP: 844.2 IU/L
  ALT: 32.6 IU/L
  AST: 64.2 IU/L
  BUN: 10.6 mg/dL
  CRE: 0.4 mg/dL
  Ca: 10.4 mg/dL
  Cl: 106.2 meq/L
  DBIL: 0.024 mg/dL
  GLC: 176.4 mg/dL
  IP: 10.6 mg/dL
  K: 5.3 meq/L
  LDH: 81.2 IU/L
  Na: 138.8 meq/L
  PL: 123.6 mg/dL
  RALB: 3.8 g/dL
  TBIL: 0.3 mg/dL
  TC: 71.2 mg/dL
  TG: 23.6 mg/dL
  TP: 5.5 g/dL
  gamma-GTP: 1.4 IU/L
24 h
  TERMINAL_BW: 200.1 g
  APTT: 16.6 s
  Bas: 0%
  Eos: 0.8%
  Fbg: 205.2 mg/dL
  Hb: 13.2 g/dL
  Ht: 39.7%
  Lym: 76.6%
  MCH: 22.1 pg
  MCHC: 33.2%
  MCV: 66.7 fL
  Mono: 8.2%
  Neu: 14.8%
  PT: 11.9 s
  Plat: 112.5 x10_4/uL
  RBC: 596.4 x10_4/ul
  Ret: 9.8%
  WBC: 81.9 x10_2/uL
  KIDNEY_L: 0.9 g
  KIDNEY_R: 0.9 g
  KIDNEY_TOTAL: 1.8 g
  LIVER: 10.2 g
  A/G: 2.3
  ALP: 1007 IU/L
  ALT: 45.4 IU/L
  AST: 76.6 IU/L
  BUN: 17.4 mg/dL
  CRE: 0.5 mg/dL
  Ca: 11.1 mg/dL
  Cl: 105.2 meq/L
  DBIL: 0.008 mg/dL
  GLC: 188.6 mg/dL
  IP: 9 mg/dL
  K: 4.9 meq/L
  LDH: 87.6 IU/L
  Na: 140.2 meq/L
  PL: 155 mg/dL
  RALB: 3.9 g/dL
  TBIL: 0.4 mg/dL
  TC: 84.2 mg/dL
  TG: 69.2 mg/dL
  TP: 5.7 g/dL
  gamma-GTP: 0.8 IU/L

Reference: ChEMBL document CHEMBL3885861, “Open TG-GATES”
